From the supplement of paper PMC9663587

Tests used:
LEE011/Ribociclib = compound: CN(C)C(=O)c1cc2cnc(Nc3ccc(N4CCNCC4)cn3)nc2n1C1CCCC1 [LEE011/Ribociclib]; experiment: increase in dead-cell fraction, 72 h; higher = more death;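 further: breast cancer cell lines in 384-well plates, stained with Hoechst plus LIVE/DEAD far red dye and imaged, cells above an LDR intensity threshold counted dead, Hoechst-negative corpses included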
Neratinib/HKI272 = compound: CCOc1cc2ncc(C#N)c(Nc3ccc(OCc4ccccn4)c(Cl)c3)c2cc1NC(=O)/C=C/CN(C)C [Neratinib/HKI272]; experiment: as above
[1] = compound: CC(=O)c1c(C)c2cnc(Nc3ccc(N4CCNCC4)cn3)nc2n(C2CCCC2)c1=O; experiment: as above
[2] = compound: CCN1CCN(Cc2ccc(Nc3ncc(F)c(-c4cc(F)c5nc(C)n(C(C)C)c5c4)n3)nc2)CC1; experiment: as above
THZ1 = compound: CN(C)C/C=C/C(=O)Nc1ccc(C(=O)Nc2cccc(Nc3ncc(Cl)c(-c4c[nH]c5ccccc45)n3)c2)cc1 [THZ1]; experiment: as above
[3] = compound: CCc1cnn2c(NCc3ccc[n+]([O-])c3)cc(N3CCCC[C@H]3CCO)nc12; experiment: as above
BSJ-03-123 = compound: CC(=O)c1c(C)c2cnc(Nc3ccc(N4CCN(CCOCCOCCOCCNC(=O)COc5cccc6c5C(=O)N(C5CCC(=O)NC5=O)C6=O)CC4)cn3)nc2n(C2CCCC2)c1=O [BSJ-03-123]; experiment: as above
Flavopiridol = compound: CN1CC[C@H](c2c(O)cc(O)c3c(=O)cc(-c4ccccc4Cl)oc23)[C@H](O)C1 [Flavopiridol]; experiment: as above
Vorinostat = compound: O=C(CCCCCCC(=O)Nc1ccccc1)NO [Vorinostat]
[4] = compound: COc1ccc2c(c1)[C@]1(C[C@H]1c1ccc3c(/C=C/c4ccc(CN5C[C@@H](C)O[C@@H](C)C5)cc4)n[nH]c3c1)C(=O)N2
[5] = compound: CCN1CCN(Cc2ccc(Nc3ncc(F)c(-c4cc(F)c5nc(C)n(C(C)C)c5c4)n3)nc2)CC1
AZD6738 = compound: C[C@@H]1COCCN1c1cc(C2([S@](C)(=N)=O)CC2)nc(-c2cc[nH]c3nccc2-3)n1 [AZD6738]
[6] = compound: CCC1=CN=CN=C1N2CCN(CC2)CC3=NC4=C(N3)C=C(C=C4)C(F)(F)F
BSJ-01-175 = compound: CN(C)C/C=C/C(=O)Nc1ccc(O[C@@H]2CCC[C@@H](Nc3ncc(Cl)c(-c4c[nH]c5ccccc45)n3)C2)cc1 [BSJ-01-175]
AZD2014 = compound: CNC(=O)c1cccc(-c2ccc3c(N4CCOC[C@@H]4C)nc(N4CCOC[C@@H]4C)nc3n2)c1 [AZD2014]
Ipatasertib/GDC0068 = compound: CC(C)NC[C@@H](C(=O)N1CCN(c2ncnc3c2[C@H](C)C[C@H]3O)CC1)c1ccc(Cl)cc1 [Ipatasertib/GDC0068]
AZD7762 = compound: NC(=O)Nc1cc(-c2cccc(F)c2)sc1C(=O)N[C@H]1CCCNC1 [AZD7762]
Tivantinib/ARQ197 = compound: O=C1NC(=O)[C@@H](c2cn3c4c(cccc24)CCC3)[C@@H]1c1c[nH]c2ccccc12 [Tivantinib/ARQ197]
[7] = compound: CC(=O)Nc1cccc(-n2c(=O)n(C3CC3)c(=O)c3c(Nc4ccc(I)cc4F)n(C)c(=O)c(C)c32)c1
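Wherever GR50, 72 h is given: breast cancer and non-malignant breast epithelial cell lines, Deep Dye Drop or Dye Drop imaging, nine half-log doses, GR normalized to time-zero plates and DMSO-only controls.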

SUM149
increase in dead-cell fraction (LEE011/Ribociclib; 0.001 µM): -0.0066 | increase in dead-cell fraction (LEE011/Ribociclib; 0.003162 µM): -0.0033 | increase in dead-cell fraction (LEE011/Ribociclib; 0.01 µM): 0.001 | increase in dead-cell fraction (LEE011/Ribociclib; 0.03162 µM): -0.0061 | increase in dead-cell fraction (LEE011/Ribociclib; 0.1 µM): -0.0037 | increase in dead-cell fraction (LEE011/Ribociclib; 0.3162 µM): 0.0068 | increase in dead-cell fraction (LEE011/Ribociclib; 1 µM): 0.0043 | increase in dead-cell fraction (LEE011/Ribociclib; 3.162 µM): 0.0014 | increase in dead-cell fraction (LEE011/Ribociclib; 10 µM): 0.0135 | increase in dead-cell fraction (Neratinib/HKI272; 0.0003162 µM): -0.0005 | increase in dead-cell fraction (Neratinib/HKI272; 0.001 µM): -0.0026 | increase in dead-cell fraction (Neratinib/HKI272; 0.003162 µM): -0.0047 | increase in dead-cell fraction (Neratinib/HKI272; 0.01 µM): -0.0034 | increase in dead-cell fraction (Neratinib/HKI272; 0.03162 µM): 0.001 | increase in dead-cell fraction (Neratinib/HKI272; 0.1 µM): 0.0172 | increase in dead-cell fraction (Neratinib/HKI272; 0.3162 µM): 0.0405 | increase in dead-cell fraction (Neratinib/HKI272; 1 µM): 0.0409 | increase in dead-cell fraction (Neratinib/HKI272; 3.162 µM): 0.0594 | increase in dead-cell fraction ([1]; 0.0003162 µM): 0.0026 | increase in dead-cell fraction ([1]; 0.001 µM): 0.0019 | increase in dead-cell fraction ([1]; 0.003162 µM): 0.0012 | increase in dead-cell fraction ([1]; 0.01 µM): -0.0029 | increase in dead-cell fraction ([1]; 0.03162 µM): -0.003 | increase in dead-cell fraction ([1]; 0.1 µM): 0.0002 | increase in dead-cell fraction ([1]; 0.3162 µM): -0.0014 | increase in dead-cell fraction ([1]; 1 µM): -0.0001 | increase in dead-cell fraction ([1]; 3.162 µM): 0.0028 | increase in dead-cell fraction ([2]; 0.001 µM): -0.0036 | increase in dead-cell fraction ([2]; 0.003162 µM): -0.0058 | increase in dead-cell fraction ([2]; 0.01 µM): -0.0009 | increase in dead-cell fraction ([2]; 0.03162 µM): -0.0068 | increase in dead-cell fraction ([2]; 0.1 µM): -0.0045 | increase in dead-cell fraction ([2]; 0.3162 µM): -0.0069 | increase in dead-cell fraction ([2]; 1 µM): -0.0076 | increase in dead-cell fraction ([2]; 3.162 µM): -0.0046 | increase in dead-cell fraction ([2]; 10 µM): 0.0956 | increase in dead-cell fraction (THZ1; 0.0001 µM): -0.0005 | increase in dead-cell fraction (THZ1; 0.0003162 µM): -0.0052 | increase in dead-cell fraction (THZ1; 0.001 µM): -0.0029 | increase in dead-cell fraction (THZ1; 0.003162 µM): 0.0113 | increase in dead-cell fraction (THZ1; 0.01 µM): -0.0015 | increase in dead-cell fraction (THZ1; 0.03162 µM): 0.0274 | increase in dead-cell fraction (THZ1; 0.1 µM): 0.083 | increase in dead-cell fraction (THZ1; 0.3162 µM): 0.445 | increase in dead-cell fraction (THZ1; 1 µM): 0.589 | increase in dead-cell fraction ([3]; 0.0001 µM): -0.0003 | increase in dead-cell fraction ([3]; 0.0003162 µM): -0.0062 | increase in dead-cell fraction ([3]; 0.001 µM): 0.0017 | increase in dead-cell fraction ([3]; 0.003162 µM): 0.0022 | increase in dead-cell fraction ([3]; 0.01 µM): 0.021 | increase in dead-cell fraction ([3]; 0.03162 µM): 0.756 | increase in dead-cell fraction ([3]; 0.1 µM): 0.832 | increase in dead-cell fraction ([3]; 0.3162 µM): 0.831 | increase in dead-cell fraction ([3]; 1 µM): 0.814 | increase in dead-cell fraction (BSJ-03-123; 0.001 µM): -0.0068 | increase in dead-cell fraction (BSJ-03-123; 0.003162 µM): -0.0064 | increase in dead-cell fraction (BSJ-03-123; 0.01 µM): -0.0053 | increase in dead-cell fraction (BSJ-03-123; 0.03162 µM): 0.0051 | increase in dead-cell fraction (BSJ-03-123; 0.1 µM): 0.0006 | increase in dead-cell fraction (BSJ-03-123; 0.3162 µM): -0.0032 | increase in dead-cell fraction (BSJ-03-123; 1 µM): 0.0245 | increase in dead-cell fraction (BSJ-03-123; 3.162 µM): 0.0364 | increase in dead-cell fraction (BSJ-03-123; 10 µM): 0.217 | increase in dead-cell fraction (Flavopiridol; 0.0001 µM): 0.0065 | increase in dead-cell fraction (Flavopiridol; 0.0003162 µM): -0.0003 | increase in dead-cell fraction (Flavopiridol; 0.001 µM): 0.0038 | increase in dead-cell fraction (Flavopiridol; 0.003162 µM): -0.0072 | increase in dead-cell fraction (Flavopiridol; 0.01 µM): -0.0008 | increase in dead-cell fraction (Flavopiridol; 0.03162 µM): 0.0051 | increase in dead-cell fraction (Flavopiridol; 0.1 µM): 0.0079 | increase in dead-cell fraction (Flavopiridol; 0.3162 µM): 0.114 | increase in dead-cell fraction (Flavopiridol; 1 µM): 0.787 | GR50, 72 h (Vorinostat): 1.37 µM | GR50, 72 h [4]: 0.00332 µM | GR50, 72 h [5]: 0.594 µM | GR50, 72 h (AZD6738): 3.87 µM | GR50, 72 h [6]: > 10 µM | GR50, 72 h (BSJ-01-175): 0.0356 µM | GR50, 72 h (AZD2014): 1.92 µM | GR50, 72 h (Ipatasertib/GDC0068): 4.56 µM | GR50, 72 h (AZD7762): 0.0774 µM | GR50, 72 h (Tivantinib/ARQ197): 0.281 µM | GR50, 72 h [7]: 0.0112 µM
